What was measured:
[1] = test system: mouse macrophage RAW264.7 cells; assay: Cell death of subconfluent RAW264.7 cells (cell count); format: cell-based; details: for death in RAW264.7 cells: DHMBA 1, 10, 100 or 1000 μM, subconfluent cells
Procedure: FIG. 4 is an explanatory diagram describing that the marine factor 3,5-dihydroxy-4-methoxy benzyl alcohol (DHMBA) stimulates cell death in mouse macrophage RAW264.7 cells. RAW264.7 cells (1×10^5 cells/ml/well in a 24-well plate) were cultured in DMEM containing 10% FBS, 1% P/S, and 1% fungizone for 3 days until they reached subconfluence. The cells were cultured for another 24 hours (FIG. 4A) or 48 hours (FIG. 4B) in the control group (1% ethanol; 0 μM DHMBA as final concentration) and in the DHMBA-treated group (0.1, 1, 10, 100, or 1000 μM). In FIG. 4C, subconfluent RAW264.7 cells were cultured for another 48 hours with a caspase-3 inhibitor (10 μM) in the control group (1% ethanol; 0 μM DHMBA as final concentration) and the DHMBA-treated group (1 or 10 μM). After the culture, the number of cells attached to the dish was counted. Data are presented as the mean±SD from a total of 8 wells in 2 plates using different cell preparations. In FIG. 4D, to measure the expression level of caspase-3 or cleaved caspase-3, […] (1×10^6 cells/10 ml medium in a 100 mm dish) were cultured for 3 days in a DMEM culture medium in the control group (1% ethanol; 0 μM DHMBA as final concentration) and the DHMBA-treated group (10 μM). After the culture, cell lysates were obtained for Western blotting assay. In FIG. 4E, band intensities are shown as fold increase over the control. Data are presented as the mean±SD of values obtained from 4 dishes using different cell preparations. *: Significant difference (p<0.001) between the control group and the DHMBA-treated group. Statistical analysis was performed using 1-way ANOVA with Tukey-Kramer post-test.
RAW264.7 cells (1×10^5/ml/well in a 24-well plate) were cultured for 3 days in a DMEM culture medium containing 10% FBS, 1% P/S, and 1% fungizone using a 24-well plate. […]
The number of viable cells was counted under a microscope (Olympus MTV-3) using a hemocytometer (Sigma-Aldrich) and a cell counter (H-102P, Line Seiki Co., Ltd., Tokyo, Japan).

[2] = test system: RAW264.7 cells stimulated with LPS; assay: Measurement of osteoclast formation (TRACP-positive MNCs); format: cell-based, mouse
Procedure: Cells (1×10^5 cells/1 ml per well in a 24-well plate) were cultured for 3 days in DMEM containing 10% FBS, 1% P/S, and 1% fungizone in the control group (1% ethanol as final concentration) and in the DHMBA-treated group (0.1, 1, 10, or 100 μM) with or without LPS (100 ng/ml). The old culture medium was replaced with fresh conditioned culture medium (0.5 ml) containing LPS and/or DHMBA, and the cells were cultured for another 3 days (FIG. 9A). Cells (1×10^5 cells/1 ml per well in a 24-well plate) were cultured for 3 days in the above DMEM culture medium with LPS (100 ng/ml) but without DHMBA. […] TRACP-positive multinucleated cells (MNCs) (with 3 or more nuclei) were counted as osteoclast-like cells under a microscope (40× magnification). […]
RAW264.7 cells (1×10^5 cells/1 ml per well in a 24-well plate) were cultured for 3 days in a DMEM culture medium containing 10% FBS, 1% P/S, and 1% fungizone in the control group (1% ethanol in the culture medium as final concentration) and the LPS-treated group (100 ng/ml in the culture medium) with or without DHMBA (0.1, 1, 10, or 100 μM). […] TRACP-positive multinucleated cells (MNCs) having three or more nuclei were counted as osteoclast-like cells under a microscope (40× magnification) (Olympus MTV-3; Olympus Corp., Tokyo, Japan). […]

COc1c(O)cc(CO)cc1O [DHMBA, 3,5-dihydroxy-4-methoxybenzyl alcohol]
death in RAW264.7 cells ([1]; 24 hours): promoted | death in RAW264.7 cells ([1]; 48 hours): promoted | stimulatory effect on death of RAW264.7 cells in presence of caspase-3 inhibitor ([1]; DHMBA 1 or 10 μM, caspase-3 inhibitor 10 μM, 48 hours): blocked | LPS-enhanced osteoclast formation, late stage ([2]; 3 days LPS 100 ng/ml alone, then 3 days LPS plus DHMBA 0.1, 1, 10 or 100 μM): suppressed | LPS-enhanced osteoclast formation ([2]; LPS 100 ng/ml and DHMBA 0.1, 1, 10 or 100 μM together for 6 days): suppressed
